Among the data in US7514567B2 (priority 2003, dated 2009) are Kd values, retold here.

The target in this experiment is α7 nAChR Subtype (Rattus norvegicus, UniProt Q05941). It is filed as binding. The settings on record: read-out: KD of radioligand from saturation curves.
Sequence of α7 nAChR Subtype (Q05941 23-502 limits assumed): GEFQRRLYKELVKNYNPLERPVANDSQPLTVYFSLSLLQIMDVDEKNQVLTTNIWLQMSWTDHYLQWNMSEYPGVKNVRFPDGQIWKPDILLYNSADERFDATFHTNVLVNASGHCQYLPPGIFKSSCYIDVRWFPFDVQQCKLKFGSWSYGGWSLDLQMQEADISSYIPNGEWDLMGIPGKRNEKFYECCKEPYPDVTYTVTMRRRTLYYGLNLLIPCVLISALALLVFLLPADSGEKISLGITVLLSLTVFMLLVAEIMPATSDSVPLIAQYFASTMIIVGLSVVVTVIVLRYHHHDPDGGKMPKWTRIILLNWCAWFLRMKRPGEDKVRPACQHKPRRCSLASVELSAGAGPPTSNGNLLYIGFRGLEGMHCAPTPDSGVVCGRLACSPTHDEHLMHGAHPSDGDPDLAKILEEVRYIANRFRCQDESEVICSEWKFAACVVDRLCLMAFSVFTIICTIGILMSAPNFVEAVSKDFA

With [^125I]-α-Bungarotoxin [[^125I]-α-BTX], the Kd worked out at 1.67 nM.
